Series [1] deals with 80S14 (p21-deficient) cells. The series can be described thus: Determination of selectivity of compounds for p21-/- cells: IC50 in 80S14 cells (SRB). The format is cell-based, human. The conditions noted are these: Homo sapiens, 120 h; 80S14 (p21-deficient) cells, 5 days at 37° C., SRB; read-out: IC50 for 80S14.

As for `O=C(Nc1cccc(-c2ccnc3c(C(=O)c4cccs4)cnn23)c1)OCC(Cl)(Cl)Cl` [Example 12, 2,2,2-trichloroethyl 3-[3-(thien-2-ylcarbonyl)pyrazolo[1,5-a]pyrimidin-7-yl]phenylcarbamate], the melting point (in general, the temperature of the solid-liquid transition) fell in the range of 197 to 200 °C. Also, the concentration for half-maximal inhibition (IC50) (usually the concentration at which inhibition is half-maximal) in series [1] was less than 1000 nM.

The record behind these values is patent US20060063785A1, “Substituted pyrazolo[1,5-a] pyrimidines and process for making same” (priority 2004, published 2006).
